From publication PMC12327690, “Secreted LysM proteins are required for niche competition and full virulence in Pseudomonas savastanoi during host plant infection” (PLOS Pathogens, 2025)

Molecular target: T1, LysM3 (Pseudomonas savastanoi, UniProt Q48F89)
T1 construct: gene PSPPH_3810; LysM + M23 domains; pET28a::lysM3 in E. coli BL21(DE3), HisTrap IMAC then SEC
Experiment: nanoDSF (Tycho NT.[…]) thermal shift
Format: binding
Settings: 1 mM ligand, 5 µM protein, no Zn2+, 20 mM Hepes pH 8.0, 150 mM NaCl

T1 sequence (Q48F89 entry or part of it): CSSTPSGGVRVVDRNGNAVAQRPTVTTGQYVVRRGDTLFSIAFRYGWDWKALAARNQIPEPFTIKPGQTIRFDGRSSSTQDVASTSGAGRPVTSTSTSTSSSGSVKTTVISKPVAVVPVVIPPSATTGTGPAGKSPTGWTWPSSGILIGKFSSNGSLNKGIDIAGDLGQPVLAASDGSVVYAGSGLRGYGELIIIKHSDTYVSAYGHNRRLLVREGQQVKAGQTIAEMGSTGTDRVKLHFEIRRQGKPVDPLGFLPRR

| Compound | Ti with ligand (LysM3 alone 51.4 ± 0.1) [°C] |
| --- | --- |
| CC(=O)N[C@H]1[C@H](O[C@H]2[C@H](O)[C@@H](NC(C)=O)C(O)O[C@@H]2CO)O[C@H](CO)[C@@H](O[C@@H]2O[C@H](CO)[C@@H](O[C@@H]3O[C@H](CO)[C@@H](O)[C@H](O)[C@H]3NC(C)=O)[C@H](O)[C@H]2NC(C)=O)[C@@H]1O (some centres unmarked) [NAG4, tetra-N-acetylglucosamine] | 52.9 ± 0.1 |
| CC(=O)N[C@H]1[C@H](O[C@H]2[C@H](O)[C@@H](NC(C)=O)[C@H](O[C@H]3[C@H](O)[C@@H](NC(C)=O)C(O)O[C@@H]3CO)O[C@@H]2CO)O[C@H](CO)[C@@H](O[C@@H]2O[C@H](CO)[C@@H](O[C@@H]3O[C@H](CO)[C@@H](O[C@@H]4O[C@H](CO)[C@@H](O)[C@H](O)[C@H]4NC(C)=O)[C@H](O)[C@H]3NC(C)=O)[C@H](O)[C@H]2NC(C)=O)[C@@H]1O (some centres unmarked) [NAG6, hexa-N-acetylglucosamine] | 52.7 ± 0.4 |
